This is an account of results in US20060099712A1, “Correlation of anti-cancer activity of dyes with redox potentials” (Eastman Kodak Company, priority 2004, published 2006).

The experiment concerns CX-1 Human Colon Carcinoma. Put plainly: Clonogenic dye screening assay, CX-1 cells (IC50). The experiment is classed as cell-based. Details: CX: unit not given here. Particulars: for CX: CX-1 cells; for CX (IC50 in the CX-1 cell line): 3 hrs treatment, colonies after 7-10 days, unit from method b117-118; for CV/CX (selectivity, kill ratio): ratio of IC50 in normal CV-1 line to IC50 in carcinoma CX-1 line; for CV/C: selectivity ratio, value of 1 where dye inactive. In short, it runs like this: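 Cells seeded 16-30 h ahead (2000 CX-1 or 1000 CV-1 per well), exposed to serially diluted dyes for 3 h at 37 °C, rinsed three times, then grown into colonies. Eight-point curves spanned 0.32-0.0015 μg/mL (CX-1) and 3.2-0.025 μg/mL (CV-1). IC50 is the concentration killing 50% of cells.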

Where [1] appears, read: Table XVII, benzotellurazole derivatives.
Where [2] appears, read: Table XVII, selectivity ratio of IC50 values.
[3] abbreviates: Table XXI, oxathiacarbocyanine nitrogen substituents.
The mark [4] stands for this setting: Table XVI, selectivity ratio of IC50 values.

“And” between values parts separate entries of the source, which are not always exact repeats. Equal values may be shown once.

Under setting [1], `CCN1C(=CC=Cc2[te]c3ccc(C)cc3[n+]2CC)[Te]c2ccc(C)cc21` [R=E, X=Te, Z1=5-Me, R2=H, Z2=5-Me] registered a CX of 0.052. Further, the CV/CX under setting [2] was 7.7.

Turning to `CCN1C(=CC=Cc2sc3ccc(OC)cc3[n+]2CC)Sc2ccc(C)cc21` [drawing 41|Et|5-MeO|5-Me], the “CX (IC50 in the CX-1 cell line)” value came to 0.015 µg/mL and the “CV/CX (selectivity, kill ratio)” value is 13.3.

Turning to `CCN1/C(=C/C=C(\OC(C)=O)c2sc3ccccc3[n+]2CC)Oc2ccccc21` [drawing 39|E|OAc|H], the “CV/CX (selectivity, kill ratio)” value came to 10.0.

For the compound `CCN1/C(=C\C=C\c2sc3ccccc3[n+]2CC(=O)c2ccc(O)c(O)c2)Oc2ccccc21` [drawing 37|CC(═O)Ph-3,4-OH|Et], the “CX (IC50 in the CX-1 cell line)” value is >1.0 µg/mL and the “CV/CX (selectivity, kill ratio)” value turned out to be 10.0.

Under setting [3], `CCN1/C(=C/C=C/c2sc3ccccc3[n+]2CCC=NNS(=O)(=O)c2ccc(C)cc2)Oc2ccccc21` [R1=CCC═NNS02Ph-4C, R2=Et] registered a CX of 0.3. Besides, the CV/C (Table XXI) is listed as 33.3.

Turning to `CCSC(=C\c1sc2ccc3ccccc3c2[n+]1CC)/C=C1\Oc2ccc3ccccc3c2N1CC` [drawing 40|E|SEt], the “CX (IC50 in the CX-1 cell line)” value worked out at 0.04 µg/mL and the “CV/CX (selectivity, kill ratio)” value is recorded as 1.25.

Compound `CC[n+]1c(/C=C/C=C2C=CN(C)c3ccccc32)sc2ccccc21` [Dye 4-quinoline] displayed a CX (Table XVI, unsymmetrical dyes) of 0.01. The CV/CX under setting [4] was determined as 40.0.

Take `CCN1/C(=C/C=C/c2sc3ccccc3[n+]2CC)Sc2ccccc21.[I-]` [Dye D-165]: the “CV/CX (selectivity, kill ratio)” value came to 100. The CV/CX under setting [4] is listed as 100.0.

On to `CCN1C=C(c2ccccc2)O/C1=C\C=C\c1oc(-c2ccccc2)c[n+]1CC.[I-]` [Dye D-118], for which the “CX (IC50 in the CX-1 cell line)” value came to 0.08 µg/mL and the “CV/CX (selectivity, kill ratio)” value worked out at 93.75.

For `CCN1/C(=C/C(=C/c2sc3ccccc3[n+]2CC)C(=S)SC)Sc2ccccc21` [drawing 38|E|H|C(═S)SC|H], the “CV/CX (selectivity, kill ratio)” value was >10.0.

In the case of `CCN1/C(=C/C(=C/c2[te]c3ccc(OC)cc3[n+]2CC)c2ccccc2)Sc2ccccc21` [R=E, X=S, Z1=5-MeO, R2=Ph, Z2=H], the CX under setting [1] is reported as 0.3. Besides, under setting [2], the CV/CX turned out to be 26.6.

In the case of `CCN1C2=C(CCc3ccccc32)S/C1=C\C=C\c1sc2c([n+]1CC)-c1ccccc1CC2` [drawing 43|E|4,5-H|4,5-H], the “CX (IC50 in the CX-1 cell line)” value turned out to be 0.006 µg/mL and the “CV/CX (selectivity, kill ratio)” value turned out to be 8.33.

As for `CN1/C(=C/C=C/c2sc3c(F)c(F)c(F)c(F)c3[n+]2C)Sc2c(F)c(F)c(F)c(F)c21` [drawing 41|Me|4,5,6,7-F|4,5,6,7-F], the “CX (IC50 in the CX-1 cell line)” value is >0.32 µg/mL and the “CV/CX (selectivity, kill ratio)” value stood at 10.0.

With `CCN1C(=CC=Cc2sc3ccc(Cl)cc3[n+]2CC)Sc2ccccc21` [drawing 41|Et|5-Cl|H], the “CX (IC50 in the CX-1 cell line)” value worked out at 0.02 µg/mL and the “CV/CX (selectivity, kill ratio)” value is recorded as 40.0.

Regarding `CCC=NNC(N)=S` [drawing 37|CCC═NNC(═S)N|Et], the “CX (IC50 in the CX-1 cell line)” value is >1.0 µg/mL and the “CV/CX (selectivity, kill ratio)” value turned out to be 10.0.

Take `CCC(/C=C1\Oc2ccc3ccccc3c2N1C)=C\c1sc2ccc3ccccc3c2[n+]1C` [drawing 40|M|Et]: the “CX (IC50 in the CX-1 cell line)” value came to 0.08 µg/mL and the “CV/CX (selectivity, kill ratio)” value turned out to be 5.0.

For `CCN1C(=CC=Cc2ccc3ccccc3[n+]2CC)C=Cc2ccccc21` [Dye B-301], under “Table XV, symmetrical dyes”, the CX turned out to be 0.040. Also, the CV/CX (Table XV, selectivity ratio of IC50 values) came out at 12.5.

With `CCSC(CCN1/C(=C/C=C/c2sc3ccccc3[n+]2CCC(SCC)SCC)Sc2ccccc21)SCC` [R1=CCC(SEt)2, R2=CCC(SEt)2], the CX (Table XX, thiacarbocyanine nitrogen substituents) was >0.32. Further, where the note is “Table XX, ratio given a value of 1 where dye inactive”, the CV/CX is reported as 4.1.

The compound `CCN1/C(=C/C(C)=C/c2[te]c3ccc(C)cc3[n+]2CC)Sc2ccc(Cl)cc21` [R=E, X=S, Z1=5-Me, R2=Me, Z2=5-Cl] showed a CX under setting [1] of 0.10. The CV/CX under setting [2] was 10.0.

Regarding `CCN1C(=CC=Cc2sc3cc(OC)c(OC)cc3[n+]2CC)Sc2ccccc21` [drawing 41|Et|5,6-MeO|H], the “CX (IC50 in the CX-1 cell line)” value was determined as 0.02 µg/mL and the “CV/CX (selectivity, kill ratio)” value is listed as 20.0.

On to `CCSC(=Cc1sc2ccccc2[n+]1CC)C=C1Sc2ccccc2N1CC` [drawing 38|E|H|Set|H], for which the “CX (IC50 in the CX-1 cell line)” value turned out to be 0.04 µg/mL and the “CV/CX (selectivity, kill ratio)” value came to 15.0.

For the compound `CCN1/C(=C/C=C/c2sc3ccccc3[n+]2CC(N)=O)Oc2ccccc21` [drawing 37|CC(═O)N|Et], the “CV/CX (selectivity, kill ratio)” value is >10.0.

Consider `CCN1/C(=C/C=C/c2sc3cc(O)c(O)cc3[n+]2CC)Sc2ccccc21` [drawing 41|Et|5,5-OH|H], for which the “CV/CX (selectivity, kill ratio)” value amounted to 10.0.

With `CN1/C(=C/C=C(\C=O)c2sc3ccccc3[n+]2C)Sc2ccccc21` [drawing 38|M|CHO|H|H], the “CX (IC50 in the CX-1 cell line)” value was >0.32 µg/mL and the “CV/CX (selectivity, kill ratio)” value was 10.0.

As to `CCN1C(=CC=Cc2sc3cc(OC)ccc3[n+]2CC)Sc2cc(OC)ccc21` [drawing 41|Et|6-MeO|6-MeO], the “CX (IC50 in the CX-1 cell line)” value is 0.01 µg/mL and the “CV/CX (selectivity, kill ratio)” value was determined as 9.0.

As for `CCN1C(=CC=Cc2sc3ccccc3[n+]2CC)N(CC)c2cc(Cl)c(Cl)cc21` [benzimidazole(5,6-Cl)], the CX (Table XVI, unsymmetrical dyes) came out at 0.260. Besides, under setting [4], the CV/CX is 0.8.

For the compound `CC1CC2=C(c3ccccc31)N(C)/C(=C/C=C/c1sc3c([n+]1C)-c1ccccc1C(C)C3)S2` (centres unmarked) [drawing 43|M|4,5-H, 5-ME|4,5-H, 5-ME], the “CX (IC50 in the CX-1 cell line)” value amounted to 0.08 µg/mL and the “CV/CX (selectivity, kill ratio)” value was 1.25.

On to `CCN1/C(=C/C=C/c2sc3ccccc3[n+]2CCC(=O)N(c2ccccc2)C(C)C)Oc2ccccc21` [drawing 37|CCC(═0)N(iPr)Ph|Et], for which the “CX (IC50 in the CX-1 cell line)” value came to 0.03 µg/mL and the “CV/CX (selectivity, kill ratio)” value stood at 26.7.

For the compound `CCN1/C(=C\C=C\c2[se]c3ccccc3[n+]2CC)Sc2cc(O)c(O)cc21` [drawing 42|H|5,6-OH], the “CX (IC50 in the CX-1 cell line)” value is 0.300 µg/mL.

`CCN1/C(=C/C=C/c2sc3ccccc3[n+]2CC)Oc2ccc(C)cc21` [drawing 44|E|H|5-Me]: the “CV/CX (selectivity, kill ratio)” value was 4.0.

In the case of `CCC(/C=C1\Oc2ccc3ccccc3c2N1CC)=C\c1sc2ccc3ccccc3c2[n+]1CC` [drawing 40|E|Et], the “CX (IC50 in the CX-1 cell line)” value stood at 0.06 µg/mL and the “CV/CX (selectivity, kill ratio)” value was 5.0.

On to `CC[n+]1c(/C=C/C=C2\SC(C)=C(C)N2C)oc2ccccc21.[I-]` [Dye D-119], for which the “CX (IC50 in the CX-1 cell line)” value worked out at 0.05 µg/mL and the “CV/CX (selectivity, kill ratio)” value is on record as 60.

Turning to `CCN1/C(=C/C=C/c2c3ccccc3c3ccccc3[n+]2C)Sc2ccccc21` [Dye D-129], the “CX (IC50 in the CX-1 cell line)” value is 0.008 µg/mL and the “CV/CX (selectivity, kill ratio)” value turned out to be 87.5. For the same compound, the CX (Table XVI, unsymmetrical dyes) came out at 0.008. Further, under setting [4], the CV/CX came to 87.5.

For the compound `CN1C2=C(CCc3ccccc32)S/C1=C\C=C\c1sc2c([n+]1C)-c1ccccc1CC2` [drawing 43|M|4,5-H|4,5-H], the “CX (IC50 in the CX-1 cell line)” value is 0.20 µg/mL and the “CV/CX (selectivity, kill ratio)” value came out at 4.0.

Consider `CC[n+]1c(/C=C(/C=C2\Sc3ccccc3N2C)SC)sc2ccccc21` [drawing 38|E/M|H|SMe|H], for which the “CX (IC50 in the CX-1 cell line)” value turned out to be 0.008 µg/mL and the “CV/CX (selectivity, kill ratio)” value amounted to 37.5.

As to `CC[n+]1c(/C=C/C=C2\Oc3cc([N+](=O)[O-])c(Cl)cc3N2C)sc2cc([N+](=O)[O-])ccc21` [drawing 44|E/M|6-N03|5-Cl, 6-N03], the “CV/CX (selectivity, kill ratio)” value was found to be 10.0.

On to `CCN1/C(=C/C=C/c2sc3cc(Cl)ccc3[n+]2CC)Sc2cc(Cl)ccc21` [Dye D-105], for which the “CX (IC50 in the CX-1 cell line)” value amounted to 0.008 µg/mL and the “CV/CX (selectivity, kill ratio)” value was 112.5. In addition, the Selectivity (Table 1, cell line not given, values equal CV/CX of Table II) is reported as 112.5.

As for `CCN1/C(=C/C=C/c2sc3ccc(-c4ccccc4)cc3[n+]2CC)Sc2ccc(-c3ccccc3)cc21` [drawing 41|Et|5-Ph|5-Ph,], the “CX (IC50 in the CX-1 cell line)” value was 0.08 µg/mL and the “CV/CX (selectivity, kill ratio)” value amounted to 1.25.

Take `CCN1/C(=C/C=C/c2oc3c(Cl)c(C)c(Cl)cc3[n+]2CC)Oc2c1cc(Cl)c(Cl)c2C` [drawing 45|5,7-Cl, 6-Me|5,6-Cl, 7-Me]: the “CV/CX (selectivity, kill ratio)” value is >10.0.

With `CC[n+]1c(/C=C/C=C2\[Te]c3ccccc3N2C)sc2ccc3ccccc3c21.[I-]` [Dye D-151], the “CX (IC50 in the CX-1 cell line)” value is 0.007 µg/mL; the “CV/CX (selectivity, kill ratio)” value was 71 and 71.42. This compound also gave a CX under setting [1] of 0.007. In addition, under setting [2], the CV/CX came out at 71.4.

For `CCN1/C(=C/C=C/c2sc3ccc4ccccc4c3[n+]2CC)Sc2cc(N)ccc21` [drawing 47|NH2], the “CX (IC50 in the CX-1 cell line)” value came out at 0.10 µg/mL and the “CV/CX (selectivity, kill ratio)” value is given as 40.

For `CCN1C(=CC(C)=Cc2sc3ccccc3[n+]2CC)Sc2ccccc21` [drawing 38|E|H|Me|H], the “CV/CX (selectivity, kill ratio)” value was determined as 8.0.

As to `CCN1/C(=C/C=C/c2sc3ccccc3[n+]2CCC=NNC(N)=S)Oc2ccccc21` [R1=CCC═NNC(═S)N, R2=Et], the CX under setting [3] was >1.0. In addition, the CV/C (Table XXI) is on record as 1.0.

`CC[n+]1c(/C=C/C=C2\Oc3ccccc3N2CC(F)(F)F)sc2ccccc21` [R1=Et, R2=CC(F)3]: the CX under setting [3] came out at 0.1. Besides, the CV/C (Table XXI) is reported as 50.0.

On to `CCN1/C(=C/C=C/c2sc3ccccc3[n+]2CCS(=O)(=O)CC)Oc2ccccc21` [R1=CCS02CC, R2=Et], for which the CX under setting [3] stood at 0.3. Further, the CV/C (Table XXI) is on record as >33.3.
